Data published in patent US7589075B2, “Use of an adenosine A3 receptor agonist for inhibition of viral replication” (Can-Fite Biopharma Ltd., priority 2001, dated 2009).

Columns and labels:
Assay type in all cases: cell-based
[1] = test system: HIV-1 isolate JR-FL in primary human fetal astrocytes; assay: p24 ELISA, HIV replication in JR-FL infected astroglial cells; details: for p24 pg/mL Day 5: Astroglia/JR-FL, 0.01 (μM) every 24 hours, culture medium 5 days after HIV infection, HIV control 22.83; for amount of p24 protein in culture medium from HIV infected cells in comparison to untreated HIV controls: summary statement for Tables 1 to 3 (astroglia and microglia, JR-FL and SF162)
Description: (§1) Purified primary human fetal astrocytes and microgial cells were prepared from 16 to 20 week old human fetal brain tissue by a modified procedure based on the methods of Cole and de Vellis^11, and Yong and Ante^13. Brain tissue was washed in ice-cold Hank's Balanced Salt Solution (HBSS) containing the antibiotics gentamycin and amphotericin B. Blood vessels and meninges were removed and the tissue was minced into small pieces. After mincing, the tissue was enzymatically dissociated by incubation in 0.05% trypsin and mechanically disrupted by passing several times over a 75 μm nylon mesh filter. The resulting single cell suspension was washed, pelleted and plated at a density of 2-10×10^6 cells per 162 cm^2 flask in DMEM:F12 containing 10% fetal calf serum, insulin, gentamycin, and L-glutamine. After 7-10 days of growth, microglial cells were isolated by placement on rotary shaker at 200 rpm in a 37° C. incubator overnight. The non-adherent cells were removed and allowed to attach to a new flask for 1 to 3 h. Following attachment, the cells were washed and refed with media containing 10% fetal calf serum, insulin, gentamycin, L-glutamine, and NI supplement. Astrocytes were subcultured from adherent cells in media containing 15% fetal calf serum, insulin, gentamycin, and L-glutamine and contaminating microglia were removed by repeated rotary shaking. Cultured astrocytic and microglial cells were plated at a density of 2.5×10^5 per well into 6 well plates for subsequent infection.
(§2) Brain derived primary HIV-1 isolates SF162 and JR-FL were cultured in human peripheral blood mononuclear cells (PBMC) essentially as described by Gartner and Popovic^12. PBMC were isolated from human buffy coat by fico gradient and plated at a density of 2.5×10^6 per ml in RPMI containing 10% fet calf serum and gentamycin. Cells were stimulated by the addition of 5 ug/ml phytohemagglutinin (PHA) for 48 h. After stimulation, cells were infected will either SF162 or JR-FL and cultured for 7 to 10 days until high titres of HIV-1 we detected in the supernatant by p24 ELISA assay. When viral production was optimal, the cells were pelleted, the supernatant containing HIV-1 was aliquoted and stored at −70° C. until use. P24 ELISA assay was performed on an aliquoted stock to determine the viral titre.
2.5×10^5 microglial or astrocytic cells were plated per well into 6-we plates. The next day, cells were washed and refed with fresh medium. 2×10^4 p2units of either SF 162 or JR-FL virus was added per well in a total of 1 ml of vir inoculum. In control experiments, the virus was not added. Cells were incubated with virus overnight at 37° C., washed extensively with PBS, and refed with […] fresh medium. Cultures were treated with IB-MECA or CI-IB-MECA at concentration of 0.01 μM every 24 hours. […]

[2] = test system: HIV-1 isolate SF162 in primary human fetal astrocytes; assay: p24 ELISA, HIV replication in SF162 infected astroglia; details: Astroglia/SF-162; 0.01 (μM) every 24 hours; culture medium 5 days after infection; HIV control 313.38
Description: as §1, with “Following attachment, the cells were washed and refed with media containing 10% fetal calf serum, insulin, gentamycin, L-glutamine, and NI supplement. Astrocytes were subcultured from adherent cells in media containing 15% fetal calf serum, insulin, gentamycin, and L-glutamine and contaminating microglia were removed by repeated rotary shaking. Cultured astrocytic and microglial cells were plated at a density of 2.5×10^5 per well into 6 well plates for subsequent infection.” left out
Brain derived primary HIV-1 isolates SF162 and JR-FL were cultured in human peripheral blood mononuclear cells (PBMC) essentially as described by Gartner and Popovic^12. […] After stimulation, cells were infected will either SF162 or JR-FL and cultured for 7 to 10 days until high titres of HIV-1 we detected in the supernatant by p24 ELISA assay. […]

[3] = test system: HIV-1 isolate SF162 in primary human fetal microglia; assay: p24 ELISA, HIV replication in SF162 infected microglia; details: Microglia/SF; for p24 pg/mL Day 5 after infection: HIV control 267.99; for p24 pg/mL Day 10 after infection: HIV control 209.18
Description: as §1, §2
2.5×10^5 microglial or astrocytic cells were plated per well into 6-we plates. The next day, cells were washed and refed with fresh medium. 2×10^4 p2units of either SF 162 or JR-FL virus was added per well in a total of 1 ml of vir inoculum. In control experiments, the virus was not added. Cells were incubated with virus overnight at 37° C., washed extensively with PBS, and refed with […] fresh medium. […] 500 μl of medium were removed at the indicated times following infection and stored at −70° C. for later analysis. Each time medium was removed, a volume amount of fresh medium was added. In control experiments IB-MECA and Cl-IB-MECA were omitted.
ELISA assay to detect the HIV-1 viral core protein, p24, was performed of 50 μl of the collected supernatant utilizing the commercially available p24 ELISA Kit (NEN/Dupont) according to the manufacturer's instructions.

Row | Compound | p24 pg/mL Day 5 [1] [pg/mL] | amount of p24 protein in culture medium from HIV infected cells in comparison to untreated HIV controls [1] | p24 pg/mL Day 5 [2] [pg/mL] | p24 pg/mL Day 5 after infection ([3]; 0.01 (μM)) [pg/mL] | p24 pg/mL Day 10 after infection ([3]; 0.01 (μM)) [pg/mL] | p24 pg/mL Day 5 after infection ([3]; 0.1) [pg/mL] | p24 pg/mL Day 10 after infection ([3]; 0.1) [pg/mL]
1 | CNC(=O)[C@H]1O[C@@H](n2cnc3c(NCc4cccc(I)c4)nc(Cl)nc32)[C@H](O)[C@@H]1O [Cl-IB-MECA] | 8.45 | significantly reduced | 288.77 | 127.03 | 111.05 | 10.81 | 80.37
2 | CNC(=O)[C@H]1O[C@@H](n2cnc3c(NCc4cccc(I)c4)ncnc32)[C@H](O)[C@@H]1O [IB-MECA, 1-deoxy-1-{6-[({3-iodophenyl}methyl)amino]-9H-purine-9-yl}-N-methyl-β-D-ribofuranuron-amide] | 3.02 | significantly reduced | 137.58 | 81.33 | 62.79 | 82.29 | 54.80
